Reference: patent US12492373B2, “Production method for nerve tissue” (Racthera Co., Ltd., priority 2014, dated 2025)

Key:
[1] = system: human iPS cells (Ff-I01 strain); assay: Immunostaining of aggregate sections for retinal tissue marker Chx10; format: cell-based; details: StemFit AK03N, day 19
Text: (§1) Cell aggregates on day 16 after the start of suspension culturing were fixed with 4% para-formaldehyde to prepare frozen sections. These frozen sections were immunostained for Chx10 (anti-Chx10 antibody, Exalpha, sheep), which is one of the retinal tissue markers. These immunostained sections were observed under a fluorescence microscope.
Cell aggregates on day 16 after the start of suspension culturing were fixed with 4% para-formaldehyde to prepare frozen sections. These frozen sections were immunostained for Chx10 (anti-Chx10 antibody, Exalpha, sheep), which is one of the retinal tissue markers, and observed under a fluorescence microscope. […] In addition, the proportion of Chx10-positive cells in the total cells is about 80% under conditions with the addition of BMP4 twice to maintain the final concentration of 5 nM (FIG. 23, D)
The cell aggregates on day 19 after the start of suspension culturing were fixed with 4% para-formaldehyde to prepare frozen sections. These frozen sections were immunostained for Chx10 (anti-Chx10 antibody, Exalpha, sheep), which is one of the retinal tissue markers. These immunostained sections were observed under an inverted fluorescence microscope. As a result, the proportion of Chx10-positive cells in the total cells is about 70% under conditions with the addition of BMP4 twice to maintain the final concentration of 1.5 nM ([…]). In addition, the proportion of Chx10-positive cells in the total cells is about 90% under conditions with the addition of BMP4 twice to maintain the final concentration of 5 nM (FIG. 34, D).
as §1, with “The thus-prepared cell” for “Cell”, “19” for “16”, “markers, and” for “markers. These immunostained sections were”

[2] = system: human iPS cells (1231A3 strain); assay: Form of cell aggregate in suspension culturing, bright field observation (good / medium / bad form); format: cell-based; details: for cell aggregates with a bad form (not spherical, collapsed) / cell aggregates with a good form (spherical, smooth surface and dense inside) / cell aggregates with a medium form (spherical, forming cyst): day 6
Description: (§2) The above human iPS cells were treated with the cell dispersion solution by using TrypLE Select (Life Technologies), further dispersed into single cells by pipetting operation, and the above human iPS cells dispersed into single cells were suspended in 100 μl of a serum-free medium at 1.2×10^4 cells per well of a non-cell-adhesive 96-well culture plate (PrimeSurface 96V-bottom plate, manufactured by SUMITOMO BAKELITE), and subjected to suspension culturing at 37° C., 5% CO2. As the serum-free medium (gfCDM+KSR) therefor, a serum-free medium which is a 1:1 mixture of F-12 medium and IMDM medium supplemented with 10% KSR, 450 μM 1-monothioglycerol, and 1× Chemically defined lipid concentrate was used. At the time of the start of suspension culturing (day 0 after the start of suspension culturing, start of step 2), Y27632 (final concentration 20 μM) was added to the above serum-free medium. By day 2 after the start of suspension culturing, a cell aggregate was formed under both preconditioning conditions and conditions without preconditioning (step 2 completed, step 3 start). On day 3 after the start of suspension culturing, a serum-free medium (50 μl) free of Y27632 was added.
The thus-prepared cells on day 6 after the start of suspension culturing were subjected to bright field observation under an inverted microscope (KEYENCE) (FIG. 3).
Furthermore, bright field observation of the form of the cell aggregate on day 6 after the start of suspension culturing was performed under an inverted microscope, and the form was categorized into good form (FIG. 3C black bar, spherical, smooth surface and dense inside), medium form (FIG. 3 gray bar, spherical, forming cyst), and bad form (FIG. 3C white bar, not spherical, collapsed) and quantified.
as §2, with “μM 1-monothioglycerol, 1× Chemically” for “μM 1-monothioglycerol, and 1× Chemically”, “20 μM) and TGFβR inhibitor (SB431542, 5 μM) were added to” for “20 μM) was added to”, “of Y27632 and supplemented with a TGFβR inhibitor (SB431542, 5 μM) was added.” for “of Y27632 was added.”
The form of the thus-prepared cell aggregates on day 6 after the start of suspension culturing was observed according to the method described in Example 3.
The above human iPS cells were treated with the cell dispersion solution by using TrypLE Select (Life Technologies), further dispersed into single cells by pipetting operation, and the above human iPS cells dispersed into single cells were suspended in 100 μl of a serum-free medium at 1.2×10^4 cells per well of a non-cell-adhesive 96-well culture plate (PrimeSurface 96V-bottom plate, manufactured by SUMITOMO BAKELITE), and subjected to suspension culturing at 37° C., 5% CO2. As the serum-free medium (gfCDM+KSR) therefor, a serum-free medium which is a 1:1 mixture of F-12 medium and IMDM medium supplemented with 10% KSR, 450 μM 1-monothioglycerol and 1× Chemically defined lipid concentrate was used. […]

[3] = SB431542 5 μM in step 1 and in step 2 and step 3
[4] = no preconditioning in step 1, SB431542 5 μM added in step 2 and step 3

| SMILES | proportion of Chx10-positive cells in the total cells ([1]; SAG 300 nM for 48, 72 or 96 hr in step 1, SAG 500 nM in step 2, BMP4 1.5 nM) | proportion of Chx10-positive cells in the total cells ([1]; SAG 300 nM for 24 hr in step 1, SAG 500 nM in step 2, BMP4 1.5 nM) | shape of cell aggregate compared with no preconditioning ([2]; SB431542 5 μM 1 day in step 1, day 6 of suspension culturing) | cell aggregates with a bad form (not spherical, collapsed) [2, 3] | cell aggregates with a good form (spherical, smooth surface and dense inside) [2, 3] | cell aggregates with a medium form (spherical, forming cyst) [2, 3] | cell aggregates with a bad form (not spherical, collapsed) ([2]; SB431542 5 μM in step 1 only) | cell aggregates with a good form (spherical, smooth surface and dense inside) ([2]; SB431542 5 μM in step 1 only) | cell aggregates with a medium form (spherical, forming cyst) ([2]; SB431542 5 μM in step 1 only) | cell aggregates with a bad form (not spherical, collapsed) [2, 4] | cell aggregates with a good form (spherical, smooth surface and dense inside) [2, 4] | cell aggregates with a medium form (spherical, forming cyst) [2, 4] |
| --- | --- | --- | --- | --- | --- | --- | --- | --- | --- | --- | --- | --- |
| CNC1CCC(N(Cc2cccc(-c3ccncc3)c2)C(=O)c2sc3ccccc3c2Cl)CC1 (stereo not drawn) [SAG] | about 80% | about 10% |  |  |  |  |  |  |  |  |  |  |
| NC(=O)c1ccc(-c2nc(-c3ccc4c(c3)OCO4)c(-c3ccccn3)[nH]2)cc1 [SB431542, 4-(5-benzol[1,3]dioxol-5-yl-4-pyridin-2-yl-1H-imidazol-2-yl)-benzamide] |  |  | better shape | about 0% | about 100% | about 0% | about 0% | about 100% | about 0% | about 30% | about 10% | about 60% |
